Test results as given in US20130059787A1, “METHODS OF USING HUMAN PROTEIN KINASE C DELTA VIII AS A BIOMARKER” (UNITED STATES DEPARTMENT OF VETERAN AFFAIRS, priority 2010, published 2013).

Tests used:
PKCδVIII = test: RT-PCR with human PKCδ primers in primary neuronal cells from hippocampus; type: cell-based; conditions: RA about 24 h
Description: FIG. 2 is a series of images indicating the expression of PKCδVIII. (a) an image showing that both PKCδI and PKCδVIII were detected and the levels of PKCδVIII increased with retinoic acid treatment. Primary neuronal cells from hippocampus were treated with RA for about 24 h. Total RNA was extracted and RT-PCR performed with primers described in FIG. 1 which detect both PKCδI and PKCδVIII simultaneously. (b) an image showing that the expression of PKCδVIII is tissue-specific with the highest levels seen in the fetal brain. Human fetal tissue specific cdNAs were used in PCR analysis using PKCδVIII-specific primers. (i) Liver (ii) kidney (iii) heart (iv) spleen (v) brain. About five percent products were separated on PAGE and detected by silver nitrate staining […]
Using PKCδ primers, PKCδI and PKCδVIII are detected simultaneously: PKCδI is 368 bp and PKCδVIII is 461 bp. […] About 5% of products were resolved on 6% PAGE gels and detected by silver staining. The PCR reaction was optimized for linear range amplification to allow for quantification of products. […]
The inventors looked for the expression of PKCδ isozymes in primary neuronal cells to verify the expression pattern of PKCδVIII. […] PKCδI and PKCδVIII isoforms were detected and the levels of PKCδVIII increased with retinoic acid treatment (FIG. 2a). PKCδVIII was not detected in aorta smooth muscle cells or skeletal muscle cells (data not shown). […]

A1 = test: Apoptosis micro-array (SuperArray, real-time RT-PCR) in NT2 cells; type: cell-based, human; conditions: RA about 24 h vs control
Excerpt: (§1) FIG. 4 is a 3D profile of the results from the apoptosis micro-array. The graph represents an average of control and RA (1 day) samples carried out in triplicate. The average ΔCt=Ct(gene of interest)−Ct(housekeeping gene).
(§2) The inventors have shown that retinoic acid increases the levels of PKCδVIII in NT2 cells. An apoptosis micro-array (SuperArray, catalog #PAHS-012A) was used to determine the profiles of proteins associated with the apoptotic cascade. RNA was isolated from control and RA (about 24 h) treated NT2 cells and used in the analysis. Real-time RT-PCR was performed according to the manufacturers' protocol and data was analyzed by SuperArray software (FIG. 4). The inventors observed about a 6-fold increase in Bcl-2 levels which were concurrent with an increase in PKCδVIII levels following RA treatment.

Bcl-2 = test: as above; type: cell-based, human; conditions: RA about 24 h vs control
Excerpt: as §1, §2

Mcl-1 = test: as above; type: cell-based, human; conditions: RA about 24 h vs control
Excerpt: as §1, §2

PKCδVIII mRNA = conditions: RA about 24 h; Jiang et al. 2008; cited from earlier work
APP/PS1 transgenic mice = conditions: RA treatment; cited from earlier work

In the case of `CC1=C(/C=C/C(C)=C/C=C/C(C)=C/C(=O)O)C(C)(C)CCC1` [RA, all-trans-retinoic acid], the “levels of PKCδVIII (RT-PCR)” value (PKCδVIII) is reported as “increased”, the A1 levels (A1) is reported as “Moderate increases” and the “increase in Bcl-2 levels” value (Bcl-2) is reported as roughly 6 fold. The Mcl-1 levels (Mcl-1) was “Moderate increases”, the “expression of PKCδVIII in NT2 cells” value (PKCδVIII mRNA) was “significantly increases” and the “APP phosphorylation and processing” value (APP/PS1 transgenic mice) was “decreased”. The Aβ deposition (APP/PS1 transgenic mice) was “decreased”, the “activation of microglia and astrocytes” value (APP/PS1 transgenic mice) was “decreased” and the neuronal degeneration (APP/PS1 transgenic mice) was “attenuated”. For the same compound, the “spatial learning and memory” value (APP/PS1 transgenic mice) was “improved” and the tau phosphorylation (APP/PS1 transgenic mice) was “decreased”.
